The source of these data is patent US20240082205A1, “USE OF PHTHALIDE COMPOUNDS IN TREATMENT OF MENINGIOMA” (EVERFRONT BIOTECH INC., priority 2020, published 2024).

≈ marks a conversion by molar mass, not a printed value.

For one test, the system named is AMGI-0102 cells. The test is described as follows: MTT cell viability, killing meningioma cells (AMGI-0102). The note with it: AMGI-0102 grade I benign meningioma primary culture cells, 72 hours. Format: cell-based, Human. The text has this:
(§1) In the following Examples, the used materials and equipment are described as below: • 1. Human meningioma cell lines: IOMM-Lee cells (purchased from ATCC; CRL-3370;
belonging to grade III malignant meningioma cells), AMGI-0102 primary culture cells (obtained by the approval according to the human subject research of Hualien Tzu Chi Hospital (Buddhist Tzu Chi Medical Foundation); belonging to grade I benign meningioma cells). • 2. […] Medium for AMGI-0102 cells: DMEM/F12 medium (Dulbecco's Modified Eagle Medium/F12 with L-glutamine, HEPES; purchased from HyClone; product number: SH30023.02) containing 10% Fetal Bovine Serum and 1% penicillin/streptomycin. • 4. Z-butylidenephthalide (Z-BP): provided by Everfront Biotech Inc.; purity 99.8%. • 5. E-butylidenephthalide (E-BP): provided by Everfront Biotech Inc.; purity 98.01%. • 6. 2-pentanolybenzoic acid (BP-OH): provided by Everfront Biotech Inc.; purity 99.6%. • 7. Sodium^2-pentanoylbenzoate (BPONa): provided by Everfront Biotech Inc.; purity 99.7%. • 8. 5-fluorouracil (5-FU): purchased from Sigma; product number: F6627. • 9. Carmustine (BCNU): purchased from Sigma; product number: SI-00400-100MG. • 10. MTIC: purchased from Biosynth Carbosynth; product number: FM26098. • 11. […] ELISA reader: purchased from Thermo Fisher Scientific; model number: 22662. • 13. […]

Another test has as its system p-JNK protein. Nature of the test: Western Blotting of p-JNK protein in IOMM-Lee cells. Type of test: cell-based, Human. Particulars: IOMM-Lee cells, 0, 16.8 and 33.6 μg/ml, 24 hours, FIG. 1. An excerpt: (§2) It is known that the activations (phosphorylation) of ERK (extracellular signal-regulated kinase) protein and JNK (c-Jun N-terminal kinase) protein in the protein kinase family are related to the proliferation of tumor cells. The aforesaid facts can be found in such as: “The ERK and JNK pathways in the regulation of metabolic reprogramming ” Oncogene. 2019; 38: 2223-2240; “ERK Inhibitor LY3214996 Targets ERK Pathway-Driven Cancers: A Therapeutic Approach Toward Precision Medicine.” Mol Cancer Ther. 2020 February; 19(2):325-336; and “The novel JNK inhibitor AS602801 inhibits cancer stem cells in vitro and in vivo.” Oncotarget. 2016 May 10; 7(19):27021-32, which are entirely incorporated hereinto by reference. Therefore, if the activations of ERK protein and JNK protein in tumor cells can be reduced, the meningioma growth will be inhibited.
(§3) IOMM-Lee cells were seeded in a 10 cm culture dish ([…]), and the dish was placed under an environment of 37° C. and 5% CO2 for 24 hours. Then, the cells in different dishes were independently cultured with a medium containing Z-butylidenephthalide at concentrations of 0, 16.8 and 33.6 μg/ml. […] Finally, the expressions of the inactivated JNK protein and ERK protein, and the activated p-JNK protein and p-ERK protein in the cells were detected by Western Blotting. […]
On the technique in general: Immunoblotting shows a protein as a band on a membrane.

A further test relates to grade III meningioma. The test is described as follows: Human test: tumor size by T1-weighted MRI after wafer implantation. Format: in vivo. The note with it: one subject with grade III meningioma; six wafers (75 mg Z-butylidenephthalide per wafer) implanted in resection cavity, plus oral temozolomide; up to 224 days after operation. How it is done: In this example, depending on the approval of the Research Ethics Committee Hualien Tzu Chi Hospital (Buddhist Tzu Chi Medical Foundation; SP109-04), meningioma patients were administered with Z-butylidenephthalide to observe the effects of the compounds of the present invention on inhibiting meningioma growth.
During the surgical operation for resecting meningioma in a subject (suffered with grade III meningioma), six wafers containing Z-butylidenephthalide (75 mg of Z-butylidenephthalide per wafer) were implanted into the cavity generated by resecting meningioma. The subject also took 150 mg/m^2 of body surface area/day (the first treatment course) or 200 mg/m^2 of body surface area/day (the second to sixth treatment course) of temozolomide via oral administration every day post-operation. […] On the other hand, the tumor size in the pictures of the subject's brain (at pre-operation, and post-operative days 1, 28, 84, 168, and 224), obtained by T1-weighted magnetic resonance imaging, was also calculated by using StealthStation S7 software (purchased from Medtronic company, US).

Another test has as its system p-ERK protein. The test is described as follows: Western Blotting of p-ERK protein in IOMM-Lee cells. Format: cell-based, Human. The note with it: IOMM-Lee cells, 0, 16.8 and 33.6 μg/ml, 24 hours, FIG. 1.
From the text: as §2, §3

The next test relates to IOMM-Lee cells. Nature of the test: MTT cell viability, killing meningioma cells (IOMM-Lee). Type of test: cell-based, Human. The note with it: IOMM-Lee grade III malignant meningioma cells, 72 hours; for IC50: Homo sapiens, read-out: IC50 (concentration to achieve 50% lethal rate).
From the text: as §1
belonging to grade III malignant meningioma cells), AMGI-0102 primary culture cells (obtained by the approval according to the human subject research of Hualien Tzu Chi Hospital (Buddhist Tzu Chi Medical Foundation); belonging to grade I benign meningioma cells). • 2. […] Medium for AMGI-0102 cells: DMEM/F12 medium (Dulbecco's Modified Eagle Medium/F12 with L-glutamine, HEPES; purchased from HyClone; product number: SH30023.02) containing 10% Fetal Bovine Serum and 1% penicillin/streptomycin. • 4. Z-butylidenephthalide (Z-BP): provided by Everfront Biotech Inc.; purity 99.8%. • 5. E-butylidenephthalide (E-BP): provided by Everfront Biotech Inc.; purity 98.01%. • 6. 2-pentanolybenzoic acid (BP-OH): provided by Everfront Biotech Inc.; purity 99.6%. • 7. Sodium^2-pentanoylbenzoate (BPONa): provided by Everfront Biotech Inc.; purity 99.7%. • 8. 5-fluorouracil (5-FU): purchased from Sigma; product number: F6627. • 9. Carmustine (BCNU): purchased from Sigma; product number: SI-00400-100MG. • 10. MTIC: purchased from Biosynth Carbosynth; product number: FM26098. • 11. MTT (Thiazolyl Blue tetrazolium bromide, 3-[4,5-dimethylthiahiazo-2-yl]-2,4-dipheny-tetrazolium bromide): purchased from ALFA Aesar™; product number: L11939-000000-16AF. • 12. ELISA reader: purchased from Thermo Fisher Scientific; model number: 22662. • 13. […]
IOMM-Lee cells and AMGI-0102 cells were independently seeded in a 96-well plate (1×10^4 cells/well), and the 96-well plate was placed under an environment of 37° C. and 5% CO2 for 24 hours. After that, the cells in the 96-well plate were subjected to the following procedures: • (a) the cells in different wells were cultured with a medium containing Z-butylidenephthalide, E-butylidenephthalide, 2-pentanolybenzoic acid, or sodium^2-pentanoylbenzoate, and the 96-well plate was placed under an environment of 37° C. and 5% CO2 for 72 hours; • (b) MTT was added into each well (the final concentration is 0.5 mg/ml), and the 96-well plate was placed under an environment of 37° C. and 5% CO2 for 1.5 hours; • (c) the medium of each well was removed, and then dimethyl sulfoxide was added (100 μl/well); and • (d) an absorbance value of each well at 595 nm was measured by an ELISA reader. […]

Consider `CCC/C=C1\OC(=O)c2ccccc21` [Z-butylidenephthalide], for which the IC50 worked out at 94.5 µg/mL (≈ 502 µM) with AMGI-0102 cells (Homo sapiens, read-out: IC50 (concentration to achieve 50% lethal rate)) and 33.5 µg/mL (≈ 178 µM) with IOMM-Lee cells. Moreover, the “expression of p-JNK protein” value with p-JNK protein was “significantly decreased”. In addition, the “tumor size of the subject” value with grade III meningioma is recorded as “no change in the tumor size”. The “expression of p-ERK protein” value with p-ERK protein is given as “significantly decreased”.
In the case of 2-pentanolybenzoic acid, the results for the “IC50 (concentration to achieve 50% lethal rate)” value with AMGI-0102 cells and in the test with IOMM-Lee cells were 1286.3 µg/mL and 304.3 µg/mL, respectively.
`CCCCC(=O)c1ccccc1C(=O)[O-].[Na+]` [sodium 2-pentanoylbenzoate]: the IC50 with IOMM-Lee cells turned out to be 365 µg/mL.
On to `CCC/C=C1/OC(=O)c2ccccc21` [E-butylidenephthalide], for which the IC50 in the test on IOMM-Lee cells turned out to be 306 µg/mL (≈ 1630 µM).
